Structures are written as SMILES. Where two headings read alike, the source gives them in different places.

Results on 18 molecules are retold here after patent publication US20250034136A1 (Nimbus Wadjet, Inc., priority 2023, published 2025).

The test system of test [1] is p21 induction in HCT116 cells. The experiment in a line: p21 induction in HCT116 cells. In kind it is cell-based. As to conditions: HCT116 cells, 24 h compound incubation, read-out: P21_EC50. The gist of the method:
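EC50 from non-linear curve fit of p21 immunofluorescence (800 nm), with GAPDH (700 nm) read alongside. DMSO and a reference WRN inhibitor served as low and high controls. Cells (2,000/well) got 11 compound concentrations in duplicate for 24 h at 37 °C.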

Test [2] has as its target WRN (BV08), human Werner helicase (Uniprot Q14191, amino acids 517-1235 with L1074F point mutation) (Homo sapiens (Human), UniProt Q14191, L1074F). Put plainly: WRN (BV08) ADP-Glo assay. In kind it is biochemical. To be noted: class symbols A-E, read-out: ADP-Glo_hWRN_IC50.

Chain of WRN (BV08), human Werner helicase (Uniprot Q14191, amino acids 517-1235 with L1074F point mutation) (Q14191 other isoform, or with tags, fused parts or gaps L1074F (already in the parent)): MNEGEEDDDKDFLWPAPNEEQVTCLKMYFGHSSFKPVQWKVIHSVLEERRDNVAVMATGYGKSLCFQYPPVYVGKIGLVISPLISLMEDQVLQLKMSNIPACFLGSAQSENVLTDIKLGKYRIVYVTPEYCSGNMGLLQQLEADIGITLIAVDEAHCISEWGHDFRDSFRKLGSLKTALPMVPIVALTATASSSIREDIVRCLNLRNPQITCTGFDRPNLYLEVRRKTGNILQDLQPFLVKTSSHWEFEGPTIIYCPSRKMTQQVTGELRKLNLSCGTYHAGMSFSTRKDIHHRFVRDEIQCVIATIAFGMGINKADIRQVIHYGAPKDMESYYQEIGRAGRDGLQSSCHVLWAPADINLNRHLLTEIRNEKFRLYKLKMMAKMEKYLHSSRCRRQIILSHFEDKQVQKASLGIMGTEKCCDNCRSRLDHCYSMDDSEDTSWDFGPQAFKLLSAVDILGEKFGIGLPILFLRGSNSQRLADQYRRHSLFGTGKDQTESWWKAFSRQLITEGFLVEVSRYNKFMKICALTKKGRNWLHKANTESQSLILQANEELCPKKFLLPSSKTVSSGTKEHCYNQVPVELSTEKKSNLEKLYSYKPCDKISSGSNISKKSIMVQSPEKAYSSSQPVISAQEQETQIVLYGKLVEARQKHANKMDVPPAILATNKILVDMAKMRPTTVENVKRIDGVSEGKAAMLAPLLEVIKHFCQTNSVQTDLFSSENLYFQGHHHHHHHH

In the case of `CCc1c(N2C[C@H]3CC[C@@H](C2)N3C(=O)c2ncnc(C)c2O)c(=O)c2nc(N(C)C)cnc2n1CC(=O)Nc1ccc(C(F)(F)F)cc1Cl` [I-206, N-[2-chloro-4-(trifluoromethyl)phenyl]-2-[2-(dimethylamino)-6-ethyl-7-[(1R,5S)-8-(5-hydroxy-6-methylpyrimidine-4-carbonyl)-3,8-diazabicyclo[3.2.1]octan-3-yl]-8-oxo-5H,8H-pyrido[2,3-b]pyrazin-5-yl]acetamide], the EC50 in test [1] (Homo sapiens, HCT-116, 24 h) is more than 5000 nM. The IC50 in test [2] is 5 to 50 nM.

Consider `CCc1c(N2CCN(C(=O)c3ncnc(C)c3O)CC2)c(=O)c2nc(C3CCC3)cnc2n1CC(=O)Nc1ccc(C(F)(F)F)cc1Cl` [I-223, N-[2-chloro-4-(trifluoromethyl)phenyl]-2-{2-cyclobutyl-6-ethyl-7-[4-(5-hydroxy-6-methylpyrimidine-4-carbonyl)piperazin-1-yl]-8-oxo-5H,8H-pyrido[2,3-b]pyrazin-5-yl} acetamide], for which the EC50 in test [1] (Homo sapiens, HCT-116, 24 h) lay within 500 to 2000 nM. Further, the IC50 in test [2] fell in the range of 5 to 50 nM.

Take `CCc1c(N2CCN(C(=O)c3ncnc(C)c3O)C[C@@H]2C)c(=O)c2nc(N(C)C)nnc2n1CC(=O)Nc1ccc(C(F)(F)F)cc1Cl` [I-118, (S)—N-(2-chloro-4-(trifluoromethyl)phenyl)-2-(3-(dimethylamino)-7-ethyl-6-(4-(5-hydroxy-6-methylpyrimidine-4-carbonyl)-2-methylpiperazin-1-yl)-5-oxopyrido[3,2-e] [1,2,4]triazin-8(5H)-yl)acetamide]: the EC50 in test [1] (Homo sapiens, HCT-116, 24 h) fell in the range of 500 to 2000 nM. Besides, the IC50 in test [2] was in the range of 5 to 50 nM.

As for `CCc1c(N2CCN(C(=O)c3ncnc(C)c3O)C3COCC32)c(=O)c2nc(N(C)C)cnc2n1CC(=O)Nc1ccc(C(F)(F)F)cc1Cl` (single isomer, unassigned) [I-279, N-(2-chloro-4-(trifluoromethyl)phenyl)-2-(2-(dimethylamino)-6-ethyl-7-(4-(5-hydroxy-6-methylpyrimidine-4-carbonyl)hexahydrofuro[3,4-b]pyrazin-1(2H)-yl)-8-oxopyrido[2,3-b]pyrazin-5(8H)-yl)acetamide], in test [1], the EC50 is more than 5000 nM. In addition, the IC50 in test [2] lay in the range of 100 to 500 nM.

As for `CCc1c(N2CCN(C(=O)c3ncnc(C)c3O)CC2)c(=O)c2nc(N3CC(F)(F)C3)cnc2n1CC(=O)Nc1ccc(C(F)(F)F)cc1Cl` [I-160, N-[2-chloro-4-(trifluoromethyl)phenyl]-2-[2-(3,3-difluoroazetidin-1-yl)-6-ethyl-7-[4-(5-hydroxy-6-methylpyrimidine-4-carbonyl)piperazin-1-yl]-8-oxo-5H,8H-pyrido[2,3-b]pyrazin-5-yl]acetamide], the EC50 in test [1] (Homo sapiens, HCT-116, 24 h) was more than 5000 nM. Also, the IC50 in test [2] is 5 to 50 nM.

Take `CCc1c(N2CCN(C(=O)c3ncnc(C)c3O)[C@H]3CC[C@@H]32)c(=O)c2nc(N(C)C)cnc2n1CC(=O)Nc1ccc(C(F)(F)F)cc1F` [I-121, 2-(2-(dimethylamino)-6-ethyl-7-((1S,6S)-5-(5-hydroxy-6-methylpyrimidine-4-carbonyl)-2,5-diazabicyclo[4.2.0]octan-2-yl)-8-oxopyrido[2,3-b]pyrazin-5(8H)-yl)-N-(2-fluoro-4-(trifluoromethyl)phenyl)acetamide]: in test [1] (Homo sapiens, HCT-116, 24 h), the EC50 was less than 500 nM. Further, the IC50 in test [2] fell in the range of 5 to 50 nM.

For the molecule `CCc1c(N2CCN(C(=O)c3c(Oc4cnn(C)c4)ncc(C)c3O)[C@H]3CC[C@@H]32)c(=O)c2nc(N(C)C)cnc2n1CC(=O)Nc1ccc(C(F)(F)F)cc1Cl` [I-273, N-[2-chloro-4-(trifluoromethyl)phenyl]-2-[2-(dimethylamino)-6-ethyl-7-[(1S,6S)-5-{4-hydroxy-5-methyl-2-[(1-methyl-1H-pyrazol-4-yl)oxy]pyridine-3-carbonyl}-2,5-diazabicyclo[4.2.0]octan-2-yl]-8-oxo-5H,8H-pyrido[2,3-b]pyrazin-5-yl]acetamide], the EC50 in test [1] (Homo sapiens, HCT-116, 24 h) was less than 500 nM. The IC50 in test [2] was in the range of 5 to 50 nM.

As for `CCc1c(N2CCN(C(=O)c3ncnc(C)c3O)CC2)c(=O)c2nc(N(C)C3CCC3)cnc2n1CC(=O)Nc1ccc(C(F)(F)F)cc1Cl` [I-131, N-[2-chloro-4-(trifluoromethyl)phenyl]-2-{2-[cyclobutyl(methyl)amino]-6-ethyl-7-[4-(5-hydroxy-6-methylpyrimidine-4-carbonyl)piperazin-1-yl]-8-oxo-5H,8H-pyrido[2,3-b]pyrazin-5-yl}acetamide], the EC50 in test [1] (Homo sapiens, HCT-116, 24 h) was 500 to 2000 nM. In addition, the IC50 in test [2] is 5 to 50 nM.

Consider `CCc1c(N2CCN(C(=O)c3ncnc(C)c3O)[C@H]3CC[C@@H]32)c(=O)c2nc(C)c(C)nc2n1CC(=O)Nc1ccc(C(F)(F)F)cc1Cl` [I-126, N-(2-chloro-4-(trifluoromethyl)phenyl)-2-(6-ethyl-7-((1S,6S)-5-(5-hydroxy-6-methylpyrimidine-4-carbonyl)-2,5-diazabicyclo[4.2.0]octan-2-yl)-2,3-dimethyl-8-oxopyrido[2,3-b]pyrazin-5(8H)-yl)acetamide], for which the EC50 in test [1] (Homo sapiens, HCT-116, 24 h) was less than 500 nM. Besides, the IC50 in test [2] lay within 5 to 50 nM.

As to `CCc1c(N2CCN(C(=O)c3ncnc(C)c3O)[C@H]3CC[C@@H]32)c(=O)c2nc(N(C)C)cnc2n1CC(=O)Nc1ccc(OC(F)(F)F)cc1F` [I-210, 2-[2-(dimethylamino)-6-ethyl-7-[(1S,6S)-5-(5-hydroxy-6-methylpyrimidine-4-carbonyl)-2,5-diazabicyclo[4.2.0]octan-2-yl]-8-oxo-5H,8H-pyrido[2,3-b]pyrazin-5-yl]-N-[2-fluoro-4-(trifluoromethoxy)phenyl]acetamide], the EC50 in test [1] (Homo sapiens, HCT-116, 24 h) is less than 500 nM. The IC50 in test [2] lay within 5 to 50 nM.

Regarding `CCc1c(N2CCN(C(=O)c3ncnc(C)c3O)CC2)c(=O)c2nc(CN3CCOCC3)cnc2n1CC(=O)Nc1ccc(C(F)(F)F)cc1Cl` [I-49, N-(2-chloro-4-(trifluoromethyl)phenyl)-2-(6-ethyl-7-(4-(5-hydroxy-6-methylpyrimidine-4-carbonyl)piperazin-1-yl)-2-(morpholinomethyl)-8-oxopyrido[2,3-b]pyrazin-5(8H)-yl)acetamide], the EC50 in test [1] (Homo sapiens, HCT-116, 24 h) was more than 5000 nM. Moreover, the IC50 in test [2] was in the range of 50 to 100 nM.

Turning to `CCc1c(N2CCN(C(=O)c3c(O)ccnc3OC)[C@@H]3CC[C@H]32)c(=O)c2nc(N(C)C)cnc2n1CC(=O)Nc1ccc(C(F)(F)F)cc1Cl` (racemic) [I-139, rac-N-[2-chloro-4-(trifluoromethyl)phenyl]-2-[2-(dimethylamino)-6-ethyl-7-[-5-(4-hydroxy-2-methoxypyridine-3-carbonyl)-2,5-diazabicyclo[4.2.0]octan-2-yl]-8-oxo-5H,8H-pyrido[2,3-b]pyrazin-5-yl]acetamide], the EC50 in test [1] (Homo sapiens, HCT-116, 24 h) was in the range of 500 to 2000 nM. For the same molecule, the IC50 in test [2] is 5 to 50 nM.

Turning to `CCc1c(N2CCN(C(=O)c3c(OC)ncc(C)c3O)CC2)c(=O)c2nc(N(C)C)cnc2n1CC(=O)Nc1ccc(C(F)(F)F)cc1Cl` [I-204, N-[2-chloro-4-(trifluoromethyl)phenyl]-2-[2-(dimethylamino)-6-ethyl-7-[4-(4-hydroxy-2-methoxy-5-methylpyridine-3-carbonyl)piperazin-1-yl]-8-oxo-5H,8H-pyrido[2,3-b]pyrazin-5-yl]acetamide], the EC50 in test [1] (Homo sapiens, HCT-116, 24 h) was less than 500 nM. Further, the IC50 in test [2] fell in the range of 5 to 50 nM.

On to `CCc1c(N2CCN(C(=O)c3ncnc(C)c3O)CC2)c(=O)c2nc(N3CC[C@H](O)C3)cnc2n1CC(=O)Nc1ccc(C(F)(F)F)cc1Cl` [I-88, (S)-N-(2-chloro-4-(trifluoromethyl)phenyl)-2-(6-ethyl-7-(4-(5-hydroxy-6-methylpyrimidine-4-carbonyl)piperazin-1-yl)-2-(3-hydroxypyrrolidin-1-yl)-8-oxopyrido[2,3-b]pyrazin-5(8H)-yl)acetamide], for which, in test [1] (Homo sapiens, HCT-116, 24 h), the EC50 is more than 5000 nM. Also, in test [2], the IC50 was in the range of 5 to 50 nM.

`CCc1c(N2CCN(C(=O)c3ncnc(C)c3O)[C@H]3CC[C@@H]32)c(=O)c2nc(CN3CCOCC3)cnc2n1CC(=O)Nc1ccc(C(F)(F)F)cc1Cl` [I-285, N-[2-chloro-4-(trifluoromethyl)phenyl]-2-{6-ethyl-7-[(1S,6S)-5-(5-hydroxy-6-methylpyrimidine-4-carbonyl)-2,5-diazabicyclo[4.2.0]octan-2-yl]-2-[(morpholin-4-yl)methyl]-8-oxo-5H,8H-pyrido[2,3-b]pyrazin-5-yl}acetamide]: the EC50 in test [1] (Homo sapiens, HCT-116, 24 h) lay within 500 to 2000 nM. The IC50 in test [2] was 5 to 50 nM.

In the case of `CCc1c(N2CCN(C(=O)c3ncnc(C)c3O)CC2)c(=O)c2nc(NCC3CC3)cnc2n1CC(=O)Nc1ccc(C(F)(F)F)cc1Cl` [I-186, N-[2-chloro-4-(trifluoromethyl)phenyl]-2-{2-[(cyclopropylmethyl)amino]-6-ethyl-7-[4-(5-hydroxy-6-methylpyrimidine-4-carbonyl)piperazin-1-yl]-8-oxo-5H,8H-pyrido[2,3-b]pyrazin-5-yl}acetamide], the EC50 in test [1] (Homo sapiens, HCT-116, 24 h) was in the range of 2000 to 5000 nM. Also, the IC50 in test [2] is 5 to 50 nM.

Turning to `CCc1c(N2CCN(C(=O)c3ncnc(C)c3O)[C@H]3CCC32)c(=O)c2nc(OC)c(C)nc2n1CC(=O)Nc1ccc(C(F)(F)F)cc1Cl` (mixture of isomers) [I-16, rac-N-(2-chloro-4-(trifluoromethyl)phenyl)-2-(6-ethyl-7-(5-(5-hydroxy-6-methylpyrimidine-4-carbonyl)-2,5-diazabicyclo[4.2.0]octan-2-yl)-2-methoxy-3-methyl-8-oxopyrido[2,3-b]pyrazin-5(8H)-yl)acetamide], the EC50 in test [1] (Homo sapiens, HCT-116, 24 h) was 500 to 2000 nM. Besides, in test [2], the IC50 lay within 5 to 50 nM.

Regarding `CCc1c(N2CCN(C(=O)c3c(OC)ncc(C)c3O)C[C@@H]2C)c(=O)c2nc(N(C)C)cnc2n1CC(=O)Nc1ccc(C(F)(F)F)cc1Cl` [I-228, N-[2-chloro-4-(trifluoromethyl)phenyl]-2-[2-(dimethylamino)-6-ethyl-7-[(2S)-4-(4-hydroxy-2-methoxy-5-methylpyridine-3-carbonyl)-2-methylpiperazin-1-yl]-8-oxo-5H,8H-pyrido[2,3-b]pyrazin-5-yl]acetamide], the EC50 in test [1] (Homo sapiens, HCT-116, 24 h) was less than 500 nM. Moreover, the IC50 in test [2] lay within 5 to 50 nM.
